What was measured:
[1] = target: T1, human liver glycogen phosphorylase a (HLGPa) (Homo sapiens, UniProt P06737); assay: Human liver glycogen phosphorylase a enzymatic activity assay; type: biochemical; conditions: 15 nM HLGPa, coupled resorufin fluorescence readout; assay run with and without 10 mM glucose, condition of the value not stated
T1 construct: creating a full-length cDNA fused at the 5′ end to codons for methionine-glycine-alanine-histidine; 6x histidine tag (leader Met-Gly-Ala-His6-Gly-Gly) (N); Tev protease cleavage site (Glu-Asn-Leu-Tyr-Phe-Gln-Gly-Gly) (N); made in house; host or cells: E. coli (bacterial expression plasmid pTXK1007LTev)
T1 sequence (P06737 1-847): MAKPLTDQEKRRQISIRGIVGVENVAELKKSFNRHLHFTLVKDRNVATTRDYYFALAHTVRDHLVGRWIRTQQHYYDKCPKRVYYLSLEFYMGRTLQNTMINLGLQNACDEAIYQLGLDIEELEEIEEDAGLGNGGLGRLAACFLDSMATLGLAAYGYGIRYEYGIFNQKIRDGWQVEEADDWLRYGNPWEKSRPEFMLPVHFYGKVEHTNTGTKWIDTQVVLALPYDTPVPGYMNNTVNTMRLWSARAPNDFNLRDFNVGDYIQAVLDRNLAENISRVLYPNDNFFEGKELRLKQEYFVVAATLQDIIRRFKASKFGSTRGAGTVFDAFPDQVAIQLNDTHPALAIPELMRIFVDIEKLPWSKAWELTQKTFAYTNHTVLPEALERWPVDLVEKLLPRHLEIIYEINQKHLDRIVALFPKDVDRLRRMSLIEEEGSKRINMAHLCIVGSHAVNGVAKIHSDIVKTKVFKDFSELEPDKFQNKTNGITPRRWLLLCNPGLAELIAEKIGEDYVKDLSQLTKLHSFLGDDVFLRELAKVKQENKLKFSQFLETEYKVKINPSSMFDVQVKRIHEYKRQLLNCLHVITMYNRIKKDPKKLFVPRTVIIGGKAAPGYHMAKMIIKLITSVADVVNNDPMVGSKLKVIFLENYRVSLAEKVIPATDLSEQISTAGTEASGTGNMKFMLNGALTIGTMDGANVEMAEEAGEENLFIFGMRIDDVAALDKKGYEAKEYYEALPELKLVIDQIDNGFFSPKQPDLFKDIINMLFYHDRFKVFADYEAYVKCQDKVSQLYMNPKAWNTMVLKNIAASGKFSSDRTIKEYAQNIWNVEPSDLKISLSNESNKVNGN
Protocol: The purified glycogen phosphorylase (GP) enzyme, wherein glycogen phosphorylase is in the activated “a” state, referred to as human liver glycogen phosphorylase a (HLGPa), can be obtained according to the following procedures.
Frozen purified glycogen phosphorylase (HLGPb) was thawed in at 4° C. then dialyzed overnight into 50 mM HEPES, 100 mM NaCl, pH 7.4. 15 mg of the dialyzed HLGPb, 3 mM ATP and 5 mM MgCl2 was incubated with 500 μl of the prepared Affi-Gel immobilized phosphorylase kinase beads equilibrated with 50 mM HEPES, 100 mM NaCl, pH 7.4. The degree of phosphorylation was monitored by following the increase in activity at 10 minute intervals using the assay system outlined below. […] MgCl2, 3.5 mM KH2PO4, 0.5 mM DTT, 0.4 mg/mL glycogen, 7.5 mM Glucose, 0.50 mM β-nicotinamide adenine dinucleotide (β-NAD), 3 U/mL phosphoglucomutase, and 5 U/mL glucose-6-phosphate dehydrogenase, Activity was monitored by following the reduction of NAD^+ at 340 nm. […]
An enzymatic assay was developed to measure the response of the activated form of glycogen phosphorylase (HLGPa) to small molecule (<1000 Da.) compounds. […] The change in fluorescence due to product formation was measured on a fluorescence plate reader (Molecular Devices SpectraMax M2) with excitation at 560 nm and emission at 590 nm.

male CD rats = assay: In vivo glucagon challenge model; design: species or system rat; conditions: glucagon 10 ug/kg + Sandostatin i.v. 2 hr after dosing, serum glucose 0-20 min
Protocol: Jugular vein cannulated male CD rats (220-260 g) (Charles Rivers, Raleigh, N.C.) were received 1-2 days after cannulation, housed individually on Alpha-Dri™ bedding (Shepherd Specialty Papers, Inc., Kalamazoo, Mich.) with free access to food (Lab Diet 5001, PMI Nutrition International, Brentwood, Mo.) and water and maintained on a 12 h light/dark cycle at 21° C. and 50% relative humidity for 3-4 days prior to the glucagon challenge studies. On the day of the study, the rats were sorted by body weight into treatment groups (N=4-5) and housed individually in shoe box cages with clean Alpha-dri bedding. The cannula lines were opened by removal of 0.2 ml blood and flushed with 0.2 ml sterile saline. After a one hour acclimation, blood samples were collected to determine basal glucose and the rats were orally dosed with vehicle (5% DMSO: 30% Solutol HS15: 20% PEG400: 45% 25 mM N-methylglucamine) or drug (5 ml/kg). Two hr after drug dosing, a time zero blood sample (0.4 ml) was collected for determination of glucose and the rats were dosed through the jugular vein with Sandostatin, 0.5 mg/kg, (Novartis Pharmaceuticals Corp., East Hanover, N.J.) and glucagon, 10 ug/kg (Bedford Laboratories, Bedford, Ohio). Blood samples were collected after 10 and 20 min for glucose determination. Whole blood was placed in a Terumo Capiject blood collection tube (Terumo Medical. Corp., Elkton, Md.), allowed to sit at room temperature for 20-30 minutes and then centrifuged (3,000×G) to obtain serum. Serum levels of glucose were determined using an Olympus AU640™ clinical chemistry immuno-analyzer (Olympus America Inc., Melville, N.Y.). The % reduction (% R) of the vehicle glucose AUG was calculated for each drug treatment using the formula % reduction=100*1−(AUG drug/AUC vehicle), where AUG was calculated from serum glucose values using the equation AUG=(T0+T10)/2*10+(T10+T20)/2*10−(T0*20).

IC50 [1]: 5 nM
SMILES: COCc1cc(C)c(NC(=O)Nc2cc(-c3ccc(OC)nc3)ccc2C(=O)N[C@H](C(=O)O)[C@@H](C)OC(C)(C)C)c(C)c1 [Example 1, O-(1,1-Dimethylethyl)-N-({2-{[({2,6-dimethyl-4-[(methyloxy)methyl]phenyl}amino)carbonyl]amino}-4-[6-(methyloxy)-3-pyridinyl]phenyl}carbonyl)-L-threonine]
% R (% reduction of the vehicle glucose AUC) (male CD rats; 0.5 mg/kg oral): 32%
% R (% reduction of the vehicle glucose AUC) (male CD rats; 2 mg/kg oral): 53%
% R (% reduction of the vehicle glucose AUC) (male CD rats; 5 mg/kg oral): 63%
% R (% reduction of the vehicle glucose AUC) (male CD rats; 15 mg/kg oral): 70%

Source: patent publication US20100234433A1, “GLYCOGEN PHOSPHORYLASE INHIBITOR COMPOUND AND PHARMACEUTICAL COMPOSITION THEREOF” (priority 2007, published 2010)
